Measured values published in patent US20210134398A1, “Combinatorial Chemistry Computational System and Enhanced Selection Method” (Southern Methodist University, priority 2019, published 2021).

How the values were obtained:
[1] = target: P-gp (P-gp over-expressing cell line, DU145TXR) (Homo sapiens, UniProt P08183); assay: Cellular accumulation of experimental compounds by LC-MS/MS with and without tariquidar
Method: Stimulation of basal ATPase by 29-variants was used as an indicator that a compound may be a P-gp transport substrate. Effects on stimulated P-gp ATPase activity indicated whether a compound directly interfered with ATP usage by the protein (***, p<0.001; **, p<0.01; *, p<0.1; NS, not significant). Quantitative cellular accumulation of 29-variants was performed using LC-MS/MS and is presented as a ratio of the cellular amounts of 29-variants in the presence of P-gp inhibitor, tariquidar, divided by amounts accumulated in its absence. […] Binding of an ATP analog, SL-ATP, to P-gp was used to determine whether ATP binding to P-gp was affected by the 29-variants. Values +/−standard deviations are shown for at least three different P-gp preparations and three independent SL-ATP titration experiments. The values for SL-ATP binding in the presence of 29 were taken directly from Brewer et al. (2014).
Intracellular accumulation of compound 29 variants. Cell accumulation assays for each of the 29 variants were performed as in reference^28 to more directly assess whether the compounds were indeed transport substrates for P-gp.
Cellular Accumulation Assays for Experimental P-gp Inhibitors. Cells used (DU145TXR), cell culturing, cell exposure to compounds, cellular handling and extractions were performed as described in^28. LC-MS/MS methods were performed as described in^71 and as modified in^28.

[2] = system: P-gp overexpressing prostate cancer cell line, DU145TXR; assay: MTT cell viability assay, resensitization to paclitaxel; assay type: cell-based, human; settings: Homo sapiens; paclitaxel alone, DU145TXR, 48 hours; read-out: IC50 PTX, PTX alone
Description: The Group 1 ChemGen/docking routine produced variants of P-gp inhibitor 29 resensitize a multidrug resistant, P-gp overexpressing prostate cancer cell line to paclitaxel. The mitochondrial reduction potential of cells is often used as an indicator for cell viability using MTT assays^4. Using these assays it was observed that the five Group 1 derivatives of 29 predicted through the ChemGen/docking routine and synthesized here, 216, 227, 231, 541 and 551, re-sensitized the P-gp overexpressing prostate cancer cell line, DU145TXR^33, to the chemotherapeutic, paclitaxel (FIG. 12, showing results of assays at concentrations of 3 μM, 5 μM, 7 μM, and 10 μM).
Cytotoxicity of the chemotherapeutic, paclitaxel (PTX) to P-gp overexpressing prostate cancer cells, DU145TXR, was determined in the absence and presence of the ChemGen designed 29-variants, 216, 227, 231, 541 and 551. For each experimental compound IC50 values of PTX alone or in the presence of inhibitors, fold improvement of PTX sensitivity in the presence of inhibitor, and fold improvement of PTX sensitivity by variants compared to parental compound 29 are given.
Effects of Group 2 variants on the paclitaxel sensitivity of P-glycoprotein overexpressing prostate cancer cells, DU145TXR. MTT assays were again used to assess the efficacy of the new structural 29-variants on sensitizing the chemotherapy-resistant prostate cancer cell line, DU145TXR, to paclitaxel, at concentrations of 3 μM, 5 μM, 7 μM, and 10 μM as shown in FIG. 15 and Table 4.
MTT cell viability assay. Cells were trypsinized from monolayers and seeded with 3000 cells in 150 μL of complete medium in a 96 well plate. After 24 hours, cells were treated for 48 hours with paclitaxel (Acros Organics, NJ) and/or P-gp inhibitory compounds dissolved in DMSO, or DMSO controls. All additions were diluted into complete medium. After 48 hours of treatment, MTT assays were performed as described^41 using 5 mg/mL of MTT (Acros Organics, NJ) solution prepared in PBS (137 mM NaCl, 2.7 mM KCl, 10 mM Na2HPO4, 1.8 mM KH2PO4, pH 7.4). After 4 hours of incubation with MTT, the media was removed and the formazan crystals were dissolved in 100 μL of DMSO. The absorbance at 570 nm was then measured using a BioTek Cytation 5 imaging multi-mode reader (Bio-Tek, Winooski, Vt.). Percent viability was calculated using DMSO treated cells as representative for 100% viability, according to Equation 1. Background absorbance was determined using MTT and complete medium without cells and subtracted from all the test values. Equation 1:
The results were plotted as the mean with standard deviation (SD) of eight replicates per concentration from at least two independent experiments with n=8. The graphical representations and IC50 values were determined using four parameter variable slope non-linear regression, using the following equation: Y=bottom+(top-bottom)/(1+10^((log IC50−X)*Hill Slope) (GraphPad Prism™, La Jolla Calif., USA, Version 6.05). The reported “fold sensitization” was calculated as follows, per Equation 2: […]

Sequence of P-gp (P-gp over-expressing cell line, DU145TXR) (P08183 whole entry): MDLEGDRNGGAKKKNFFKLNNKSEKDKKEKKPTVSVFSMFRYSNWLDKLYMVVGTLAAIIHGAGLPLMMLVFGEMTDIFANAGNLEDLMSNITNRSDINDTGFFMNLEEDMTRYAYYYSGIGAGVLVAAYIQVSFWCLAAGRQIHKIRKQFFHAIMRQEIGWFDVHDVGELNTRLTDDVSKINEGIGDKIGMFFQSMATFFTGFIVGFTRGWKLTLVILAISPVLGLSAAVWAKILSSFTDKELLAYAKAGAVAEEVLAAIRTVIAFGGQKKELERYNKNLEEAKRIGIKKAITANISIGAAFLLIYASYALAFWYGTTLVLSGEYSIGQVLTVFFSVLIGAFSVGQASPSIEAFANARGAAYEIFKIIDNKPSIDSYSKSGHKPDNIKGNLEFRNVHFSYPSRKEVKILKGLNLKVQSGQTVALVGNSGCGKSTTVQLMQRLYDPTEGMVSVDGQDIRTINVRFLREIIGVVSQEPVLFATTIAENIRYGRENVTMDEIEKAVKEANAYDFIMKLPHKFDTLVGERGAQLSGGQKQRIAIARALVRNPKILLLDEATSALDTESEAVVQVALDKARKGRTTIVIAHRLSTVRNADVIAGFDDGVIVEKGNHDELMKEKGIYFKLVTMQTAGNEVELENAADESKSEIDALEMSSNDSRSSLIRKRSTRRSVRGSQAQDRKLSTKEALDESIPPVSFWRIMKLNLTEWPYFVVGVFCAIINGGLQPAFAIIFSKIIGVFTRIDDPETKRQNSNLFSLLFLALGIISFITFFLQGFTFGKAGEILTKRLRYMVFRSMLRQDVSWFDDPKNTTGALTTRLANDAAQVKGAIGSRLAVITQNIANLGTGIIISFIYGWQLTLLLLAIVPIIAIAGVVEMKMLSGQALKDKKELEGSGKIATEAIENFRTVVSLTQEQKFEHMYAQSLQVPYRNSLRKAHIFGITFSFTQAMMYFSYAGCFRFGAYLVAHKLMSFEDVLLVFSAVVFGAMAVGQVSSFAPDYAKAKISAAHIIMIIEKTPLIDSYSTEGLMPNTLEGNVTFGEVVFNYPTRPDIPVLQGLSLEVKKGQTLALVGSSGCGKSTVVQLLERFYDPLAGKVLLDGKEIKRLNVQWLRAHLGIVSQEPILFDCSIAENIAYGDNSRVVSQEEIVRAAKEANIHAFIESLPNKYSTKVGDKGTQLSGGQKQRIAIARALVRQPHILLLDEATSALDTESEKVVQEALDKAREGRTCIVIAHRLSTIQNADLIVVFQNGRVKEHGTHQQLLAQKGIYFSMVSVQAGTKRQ

| Transport substrate for P-gp ([1]; DU145TXR accumulation with/without tariquidar (and basal ATPase)) | Intracellular accumulation in absence vs presence of tariquidar (in words) ([1]; DU145TXR, LC-MS/MS) | SMILES | IC50 [2] |
| --- | --- | --- | --- |
| good transport substrate for P-gp | very strong cellular accumulation | COc1cccc2c1C(=O)c1c(O)c3c(c(O)c1C2=O)C[C@@](O)(C(C)=O)C[C@@H]3O[C@H]1C[C@H](N)[C@H](O)[C@H](C)O1 [Daunorubicin, reference compound] |  |
|  |  | CC(=O)O[C@H]1C(=O)[C@@]2(C)[C@H]([C@H](OC(=O)c3ccccc3)[C@]3(O)C[C@H](OC(=O)[C@H](O)[C@@H](NC(=O)c4ccccc4)c4ccccc4)C(C)=C1C3(C)C)[C@]1(OC(C)=O)CO[C@@H]1C[C@@H]2O [PTX, paclitaxel, reference compound] | 2120 nM |
